Values of other authors in patent US11000479B2, “Injectable long-acting naltrexone microparticle compositions” (Chong Kun Dang Pharmaceutical Corp., priority 2018, dated 2021).

Assays:
[1] = tested on: heroin/diamorphine effects
[2] = tested on: morphine induced analgesia; settings: rat model, hot-plate test

O=C1CC[C@@]2(O)[C@H]3Cc4ccc(O)c5c4[C@@]2(CCN3CC2CC2)[C@H]1O5 [naltrexone]
naltrexone level that completely antagonized heroin ([1]; 25 mg of heroin (Verebey et al. 1976)): 2.4 ng/mL | levels targeted as sufficient to offer protection from fatal opioid overdose ([1]; Hulse et al. 2005, Comer et al. 2002): 1 to 2 ng/mL | serum naltrexone level sufficient to block pure diamorphine ([1]; doses as high as 500 mg diamorphine, two patients (Brewer 2002)): 2.8 ng/mL | plasma naltrexone concentration shown to be effective [2]: 1 to 2 ng/mL
